Like-named read-outs stand apart in the source and are kept apart here.

From patent US20230091225A1, “Bifunctional chimeric heterocyclic compounds for targeted degradation of androgen receptors and use thereof” (HINOVA PHARMACEUTICALS INC., priority 2019, published 2023) come the findings set out here.

One experiment has as its system LNCaP/AR cells. In words: Inhibition of proliferation of LNCaP/AR prostate cancer cells (CCK-8). The class given is cell-based.
For a further experiment, the target named is T1, androgen receptor (AR) (Homo sapiens, UniProt P10275).
T1 sequence (P10275 1-920): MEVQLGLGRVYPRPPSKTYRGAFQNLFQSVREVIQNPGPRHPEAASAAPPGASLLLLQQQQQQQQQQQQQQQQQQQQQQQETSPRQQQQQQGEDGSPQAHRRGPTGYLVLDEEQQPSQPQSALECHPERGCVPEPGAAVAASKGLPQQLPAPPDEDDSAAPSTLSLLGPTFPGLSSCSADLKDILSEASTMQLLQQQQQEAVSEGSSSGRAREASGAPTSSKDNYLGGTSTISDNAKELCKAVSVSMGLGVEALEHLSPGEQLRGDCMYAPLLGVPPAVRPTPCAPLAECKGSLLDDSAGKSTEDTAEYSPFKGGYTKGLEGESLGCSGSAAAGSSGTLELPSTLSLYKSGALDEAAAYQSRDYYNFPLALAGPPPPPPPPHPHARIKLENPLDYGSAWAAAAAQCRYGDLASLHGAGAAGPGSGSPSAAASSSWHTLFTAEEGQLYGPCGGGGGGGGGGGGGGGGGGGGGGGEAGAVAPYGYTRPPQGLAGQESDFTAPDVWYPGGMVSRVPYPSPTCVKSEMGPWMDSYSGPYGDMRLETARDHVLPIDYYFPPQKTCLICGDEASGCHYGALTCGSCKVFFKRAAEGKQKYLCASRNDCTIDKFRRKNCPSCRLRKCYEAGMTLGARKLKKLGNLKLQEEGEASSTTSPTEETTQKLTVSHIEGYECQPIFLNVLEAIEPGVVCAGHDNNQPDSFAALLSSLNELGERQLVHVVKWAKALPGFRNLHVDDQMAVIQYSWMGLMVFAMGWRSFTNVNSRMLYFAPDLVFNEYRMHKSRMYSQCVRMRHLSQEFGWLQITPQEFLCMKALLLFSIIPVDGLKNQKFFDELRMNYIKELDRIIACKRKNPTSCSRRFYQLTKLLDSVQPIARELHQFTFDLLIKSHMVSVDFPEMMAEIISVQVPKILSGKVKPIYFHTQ
In words: Degradation of androgen receptor (AR) protein in VCaP cells by ELISA. The class given is cell-based. To be noted: for inhibition at 0.1 µM: read-out: % degradation. A general note: An ELISA detects its analyte on a solid surface through an enzyme-linked reagent.

[1] abbreviates: proliferation of LNCap/AR cells, 6 days, CCK-8, read-out: IC50.
[2] abbreviates: 144 h, proliferation of LNCap/AR cells, 6 days, CCK-8, read-out: IC50.
Setting [3] is: percentage of degraded AR at 100 nM, VCaP cells, 16 h, ELISA.

On to `CC(=O)O[C@@H]1C[C@@H](C(=O)N[C@@H](C)c2ccc(-c3scnc3C)cc2)N(C(=O)[C@@H](NC(=O)Cn2cc(C#Cc3ccc4c(c3)CN([C@H]3C(C)(C)[C@H](Oc5ccc(C#N)c(Cl)c5)C3(C)C)C4=O)cn2)C(C)(C)C)C1` [Compound 10, (3R,5S)-1-((S)-2-(2-(4-((2-((1r,3r)-3-(3-chloro-4-cyanophenoxy)-2,2,4,4-tetramethylcyclobutyl)-1-oxoisoindolin-5-ylethynyl)-1H-pyrazol-1-yl)acetylamino)-3,3-dimethylbutyryl)-5-((((S)-1-(4-(4-methylthiazol-5-yl)phenyl)ethylcarbamoyl)pyrrolidin-3-yl acetate], for which the IC50 (commonly the point on the concentration scale where inhibition reaches its midpoint) in the experiment on LNCaP/AR cells (setting [1]) lay within 100 to 500 nM. Besides, at androgen receptor (AR), the “% degradation” value is reported as “C (key: A: >80%; B: 79%-50%; C: 49%-25%; D: <25%)”.
With `[2H]C([2H])([2H])N(C(=O)c1ccc(C#CCCCOCC(=O)N[C@H](C(=O)N2C[C@H](O)C[C@H]2C(=O)N[C@@H](C)c2ccc(-c3scnc3C)cc2)C(C)(C)C)cc1)[C@H]1C(C)(C)[C@H](Oc2ccc(C#N)c(Cl)c2)C1(C)C` [Compound 22], the IC50 with LNCaP/AR cells (setting [2]) was below 100 nM. In addition, on androgen receptor (AR) (setting [3]), the inhibition at 0.1 µM was in the range of 25 to 49%.
Take `[2H]C([2H])([2H])N(C(=O)c1ccc(N2CCC(CN3CCN(c4cc5c(cc4F)C(=O)N(C4CCC(=O)NC4=O)C5)CC3)CC2)nc1)[C@H]1C(C)(C)[C@H](Oc2ccc(C#N)c(Cl)c2)C1(C)C` (stereo partly drawn) [Compound 216, N-((1r,3r)-3-(3-chloro-4-cyanophenoxy)-2,2,4,4-tetramethylcyclobutyl)-6-(4-((4-(2-(2,6-dioxopiperidin-3-yl)-6-fluoro-1-oxoisoindolin-5-yl)piperazin-1-yl)methyl)piperidin-1-yl)-N-(methyl-d3)nicotinamide]: the IC50 in the experiment on LNCaP/AR cells (setting [2]) was 100 to 500 nM. In addition, the inhibition at 0.1 µM on androgen receptor (AR) (setting [3]) was above 80%.
Turning to `CC(=O)O[C@@H]1C[C@@H](C(=O)N[C@@H](C)c2ccc(-c3scnc3C)cc2)N(C(=O)[C@@H](NC(=O)CN2CCC(CN3CCN(c4ccc(C(=O)NC5C[C@@]6(C)O[C@]5(C)[C@@H]5C(=O)N(c7ccc(C#N)c(Cl)c7)C(=O)[C@@H]56)cn4)CC3)CC2)C(C)(C)C)C1` (stereo partly drawn) [Compound 17, (3R,5S)-1-((2S)-2-(2-(4-((4-(5-(((3aR,4R,7R,7aS)-2-(3-chloro-4-benzonitrile)-4,7-dimethyl-1,3-dioxooctahydro-1H-4,7-epoxyisoindolin-5-yl)carbamoyl) (pyridin-2-yl)piperazin-1-yl)methyl)piperidin-1-yl)acetylamino)-3,3-dimethylbutyryl)-5-(((S)-1-(4-(4-methylthiazol-5-yl)phenyl)ethyl)carbamoyl)pyrrolidin-3-yl acetate], the IC50 in the experiment with LNCaP/AR cells (LNCaP/AR, 144 h) is below 100 nM. Further, on androgen receptor (AR) (VCaP, 16 h), the inhibition at 0.1 µM is 50 to 79%.
As to `N#Cc1ccc(O[C@H]2CC[C@H](N3Cc4nc(N5CCC(CN6CCN(c7cc8c(cc7F)C(=O)N(C7CCC(=O)NC7=O)C8=O)CC6)CC5)ccc4C3=O)CC2)cc1Cl` (stereo partly drawn) [Compound 200], the IC50 with LNCaP/AR cells (setting [2]) is above 1000 nM. For the same compound, the inhibition at 0.1 µM on androgen receptor (AR) (VCaP, 16 h) fell in the range of 50 to 79%.
For `CC(=O)O[C@@H]1C[C@H](C(=O)N[C@@H](C)c2ccc(-c3scnc3C)cc2)N(C(=O)[C@@H](NC(=O)COCCCCC#Cc2ccc3c(c2)C(=O)N(C2C(C)(C)C(Oc4ccc(C#N)c(Cl)c4)C2(C)C)C3)C(C)(C)C)C1` (stereo partly drawn) [Compound 4, (3R,5R)-1-((S)-2-(2-((6-(2-((1R,3R)-3-(3-chloro-4-cyanophenoxy)-2,2,4,4-tetramethylcyclobutyl)-3-oxoisoindolin-5-yl)hex-5-yn-1-yl)oxy)acetylamino)-3,3-dimethylbutyryl)-5-(((S)-1-(4-(4-methylthiazol-5-yl)phenyl)ethyl)carbamoyl) pyrrolidin-3-yl acetate], the IC50 with LNCaP/AR cells (setting [1]) was below 100 nM. The “% degradation” value at androgen receptor (AR) is given as “C (key: A: >80%; B: 79%-50%; C: 49%-25%; D: <25%)”.
Take `Cc1ncsc1-c1ccc([C@H](C)NC(=O)[C@@H]2C[C@@H](O)CN2C(=O)[C@@H](NC(=O)Cn2cc(C#Cc3ccc4c(c3)CN(C3C(C)(C)C(Oc5ccc(C#N)c(Cl)c5)C3(C)C)C4=O)cn2)C(C)(C)C)cc1` (stereo partly drawn) [Compound 11]: the IC50 in the experiment with LNCaP/AR cells (setting [1]) was below 100 nM. For the same compound, the “% degradation” value at androgen receptor (AR) (setting [3]) was “B (79%-50%)”.
As to `CC1(C)[C@H](NC(=O)c2ccc(N3CCC(CN4CCN(c5cc6c(cc5F)C(=O)N(C5CCC(=O)NC5=O)C6)CC4)CC3)nc2)C(C)(C)[C@H]1Oc1ccc(C#N)c(Cl)c1` (stereo partly drawn) [Compound 213], the IC50 with LNCaP/AR cells (setting [2]) was above 1000 nM. Further, the inhibition at 0.1 µM on androgen receptor (AR) (setting [3]) was 25 to 49%.
The corresponding values for `Cc1ncsc1-c1ccc([C@H](C)NC(=O)[C@@H]2C[C@@H](O)CN2C(=O)[C@@H](NC(=O)COCCCN2CCN(c3ccc4c(c3)CN(C3C(C)(C)C(Oc5ccc(C#N)c(Cl)c5)C3(C)C)C4=O)CC2)C(C)(C)C)cc1` (stereo partly drawn) [Compound 31] are below 100 nM and 50 to 79%.
The corresponding values for `N#Cc1ccc(O[C@H]2CC[C@H](N3Cc4nc(N5CCN(CC6CCN(c7cc8c(cc7F)C(=O)N(C7CCC(=O)NC7=O)C8=O)CC6)CC5)ccc4C3=O)CC2)cc1Cl` (stereo partly drawn) [Compound 210] are above 1000 nM and below 25%.
Turning to `CC(=O)O[C@@H]1C[C@@H](C(=O)N[C@@H](C)c2ccc(-c3scnc3C)cc2)N(C(=O)[C@@H](NC(=O)COCC(C)OCC#Cc2ccc3c(c2)CN([C@H]2C(C)(C)[C@H](Oc4ccc(C#N)c(Cl)c4)C2(C)C)C3=O)C(C)(C)C)C1` (stereo partly drawn) [Compound 14, (3R,5S)-1-((2S)-2-(2-(2-((3-(2-((1r,3r)-3-(3-chloro-4-cyanophenoxy)-2,2,4,4-tetramethylcyclobutyl)-1-oxoisoindol-5-yl)prop-2-yn-1-yl)oxy)propoxy)acetylamino)-3,3-dimethylbutyryl)-5-((((S)-1-acetic acid (4-(4-methylthiazol-5-yl)phenyl)ethyl)carbamoyl)pyrrolidin-3-yl acetate], in the experiment on LNCaP/AR cells (LNCaP/AR, 144 h), the IC50 is below 100 nM. Also, on androgen receptor (AR) (setting [3]), the inhibition at 0.1 µM was 50 to 79%.
For `N#Cc1ccc(O[C@H]2CC[C@H](N3Cc4nc(N5CCC(CN6CCN(c7cc8c(cc7F)C(=O)N(C7CCC(=O)NC7=O)C8)CC6)CC5)ccc4C3=O)CC2)cc1Cl` (stereo partly drawn) [Compound 204], the IC50 in the experiment on LNCaP/AR cells (setting [2]) is below 100 nM. In addition, the inhibition at 0.1 µM on androgen receptor (AR) (setting [3]) was in the range of 50 to 79%.
In the case of `Cc1ncsc1-c1ccc([C@H](C)NC(=O)[C@H]2C[C@@H](O)CN2C(=O)[C@@H](NC(=O)COCCCCC#Cc2cc3c(cn2)C(=O)N(C2C(C)(C)C(Oc4ccc(C#N)c(Cl)c4)C2(C)C)C3)C(C)(C)C)cc1` (stereo partly drawn) [Compound 38], in the experiment on LNCaP/AR cells (setting [1]), the IC50 is below 100 nM. In addition, the “% degradation” value at androgen receptor (AR) is given as “B (key: A: >80%; B: 79%-50%; C: 49%-25%; D: <25%)”.
For the compound `N#Cc1ccc(O[C@H]2CC[C@H](N3Cc4nc(N5CCC(CN6CCN(c7cc8c(cc7F)CN(C7CCC(=O)NC7=O)C8=O)CC6)CC5)ccc4C3=O)CC2)cc1Cl` (stereo partly drawn) [Compound 203], the IC50 in the experiment with LNCaP/AR cells (setting [2]) was above 1000 nM. The inhibition at 0.1 µM on androgen receptor (AR) (setting [3]) is below 25%.
The corresponding values for `Cc1ncsc1-c1ccc(C2(NC(=O)C3C[C@@H](O)CN3C(=O)[C@@H](NC(=O)COCCCCCNc3ccc(C(=O)N[C@H]4C(C)(C)[C@H](Oc5ccc(C#N)c(Cl)c5)C4(C)C)cc3)C(C)(C)C)CC2)cc1` (stereo partly drawn) [Compound 47] are below 100 nM and 50 to 79%.
Taken in the same sequence, the figures for `N#Cc1ccc(O[C@H]2CC[C@H](N3Cc4nc(N5CC[C@@H](CN6CCN(c7cc8c(cc7F)CN(C7CCC(=O)NC7=O)C8=O)CC6)C5)ccc4C3=O)CC2)cc1Cl` (stereo partly drawn) [Compound 54] were above 1000 nM and 25 to 49%.
In the case of `Cc1ncsc1-c1ccc([C@H](C)NC(=O)[C@@H]2C[C@@H](O)CN2C(=O)[C@@H](NC(=O)CN2CCC(CN3CCN(c4ccc(C(=O)NC5CC6(C)OC5(C)[C@@H]5C(=O)N(c7ccc(C#N)c(Cl)c7)C(=O)[C@@H]56)cn4)CC3)CC2)C(C)(C)C)cc1` (stereo partly drawn) [Compound 18, N-((3aR,4R,7R,7aS)-2-(3-chloro-4-benzonitrile)-4,7-dimethyl-1,3dioxooctahydro-1H-4,7-epoxyisoindolin-5-yl)-6-(4-((1-(2-(((S)-1-((2S,4R)-4-hydroxy-2-(((S)-1-(4-(4-methylthiazol-5-yl)phenyl)ethyl)carbamoyl)pyrrolidin-1-yl)-3,3-dimethyl-1-oxobutan-2-yl)amino)-2-oxoethyl)piperidine-4-yl)methyl)piperazin-1-yl)nicotinamide], the IC50 in the experiment with LNCaP/AR cells (LNCaP/AR, 144 h) was below 100 nM. Further, the inhibition at 0.1 µM on androgen receptor (AR) (VCaP, 16 h) was above 80%.
`N#Cc1ccc(O[C@H]2CC[C@H](N3Cc4nc(N5CCC(CN6CCN(c7ccc8c(c7)C(=O)N(C7CCC(=O)NC7=O)C8=O)CC6)CC5)ccc4C3=O)CC2)cc1Cl` (stereo partly drawn) [Compound 57] showed an IC50 with LNCaP/AR cells above 1000 nM. Further, the “% degradation” value at androgen receptor (AR) was “D (key: A: >80%; B: 79%-50%; C: 49%-25%; D: <25%)”.
